From patent US10143638B2, “Method of treating skin with ingenol mebutate” (LEO Laboratories Limited, priority 2009, dated 2018)

Legend:
[1] = tested on: HAS1; assay: HAS1 gene expression by dermal fibroblasts (qPCR); type: cell-based, human
Text: (§1) A normal adult skin biopsy (6 mm) was obtained (n=1), with informed consent, from an individual attending the Oral Surgery Clinic, School of Dentistry, Wales College of Medicine, Cardiff. Following the application of a local anaesthetic, the dermal biopsy was collected and adult dermal fibroblast cultures established by single cell suspension technique, following enzymic degradation of the specimen. This technique has previously been reliably used to establish viable primary cultures of both oral and dermal fibroblasts in vitro (Cook et al, 2000; Stephens et al, 2001; 2003). Dermal fibroblasts were cultured in Fibroblast-Serum Containing Medium, containing Dulbecco's Modified Eagle's Medium (DMEM), supplemented with L-glutamine (2 mM), antibiotics (100 U/ml) penicillin G sodium, […] streptomycin sulphate and 0.25 μg/ml amphotericin B) and 10% foetal calf serum (all purchased from Invitrogen Ltd., Paisley, U.K.). Dermal fibroblast cultures were maintained at 37° C., in a 5% CO2/95% air atmosphere, with the culture medium being changed every 2-3 days. Dermal fibroblasts were used between) passage 7-17, for all experiments.
Following trypsinization, dermal fibroblasts were seeded in 24-well tissue culture plates, in PEP005-free, Fibroblast-Serum Containing Medium (1 ml), at a cell density of 2.5×10^4 cell/well. Dermal fibroblasts were maintained at 37° C., in a 5% CO2/95% air atmosphere, overnight. At this stage, the culture medium was replaced with Fibroblast-Serum Containing Medium (600 μl), containing 0 μg/ml, 0.01 μg/ml, 0.1 μg/ml, 1 μg/ml, 10 μg/ml or 100 μg/ml PEP005, +/−TGF-β1 (10 ng/ml) (three culture wells per PEP005 concentration). A control was also established, consisting of cells in Fibroblast-Serum Containing Medium, containing 1% DMSO. The dermal fibroblasts were maintained at 37° C., in a 5% CO2/95% air atmosphere, for 24 h or 72 h, prior to washing in PBS (3×1 ml) and Trizol® Reagent (250 μl) added to the cells, for 5 min at room temperature, to induce cell lysis. RNA was extracted by the phenol-chloroform method, as described above, while a cDNA library was generated via random hexamer RT, as described above. RNA (1 μg) was added to 100 µM random hexamer (1 μl), 5×RT Buffer (4 μl), 2.5 mM Deoxynucleoside Triphosphates (dNTPs, 5 μl), 2 μl DTT and Nuclease-Free Water, were added to the reaction (total volume, 20 μl). To denature the RNA, reaction tubes were placed in a GeneAmp PCR System 9700 (Applied Biosystems, Cheshire, U.K.) and heated for 5 min/95° C., prior to cooling to 4° C. Superscript (1 μl) and RNAsin® Ribonuclease Inhibitor (1 μl, Promega, Hampshire, U.K.) were added to each tube, and the tubes subjected to […] at 20° C. for 10 min, 42° C. for 1 h and 95° C. for 5 min, prior to storage at 4° C., until required. As a negative control, RT was also performed, with Nuclease-Free Water replacing the RNA sample.
qPCR was performed, as described above, with the probe and primers for HAS1, HAS2 and HAS3 (target genes) and the 18s ribosomal RNA (reference gene), designed and supplied by Applied Biosystems. PCR was performed in a final volume of 20 μl/sample, with each reaction mix consisting of cDNA (1 μl), target gene primers and probe (1 μl), Taqman® FAST Universal PCR Master Mix (10 μl, Applied Biosystems), and Nuclease-Free Water (8 μl). PCR amplification was performed, using an initial cycle of 95° C. for 1 s, followed by 40 cycles of 60° C. for 20 s. A cDNA-free control was also included. Again, the comparative CT method was used for relative quantification of gene expression. Each experiment was performed on three separate occasions.

[2] = tested on: dermal fibroblasts; assay: Hyaluronan synthesis by dermal fibroblasts (Hyaluronic Acid Quantitative Test Kit); type: cell-based, human
Text: as §1
Following trypsinization, dermal fibroblasts were seeded in 24-well tissue culture plates in PEP005-free, Fibroblast-Serum Containing Medium (1 ml), at a cell density of 2.5×10^4 cell/well. Dermal fibroblasts were maintained at 37° C., in a 5% CO2/95% air atmosphere, for 48 h, prior to maintenance in serum-free, Fibroblast-Serum Containing Medium (1 ml), for a further 48 h. At this stage, the serum-free, culture medium was replaced with Fibroblast-Serum Containing Medium (600 μl), containing 0 μg/ml, 0.01 μg/ml, 0.1 μg/ml, 1 μg/ml, 10 μg/ml or 100 μg/ml PEP005, +/−TGF-β1 (10 ng/ml) (three culture wells per PEP005 concentration). A control was also established, consisting of cells in serum-free, Fibroblast-Serum Containing Medium, containing 1% DMSO. The dermal fibroblasts were maintained at 37° C., in a 5% CO2/95% air atmosphere, for 24 h or 72 h, prior to culture medium removal. Hyaluronan synthesis in the collected culture media was quantified, using a Hyaluronic Acid Quantitative Test Kit (Corgenix U.K. Ltd., Cambridgeshire, U.K.), which utilizes a naturally occurring bovine binding protein to hyaluronan. Supernatants were assayed, as per manufacturer's instructions, and optical density measured using a spectrophotometer at 450 nm. Hyaluronan concentrations were determined by comparing the absorbance of the sample against a reference curve prepared from the reagent blank and standards. Each experiment was performed on three separate occasions.

[3] = Stability of PEP005/DMSO stock solution; type: physicochemical; settings: 10 mg/ml in DMSO, stored at 4° C.
Procedure: PEP005, obtained from Peplin in 20 mg batches, was stored at 4° C. When required, the PEP005 was solubilized in dimethyl sulphoxide (DMSO, >99.9%, Sigma Chemical Company, Dorset, U.K.), at a concentration of 10 mg/ml. […] Prior to use, the PEP005/DMSO stock solution was removed from 4° C. storage and warmed to room temperature. The required volumes of PEP005/DMSO were aliquoted into a poly-propylene vessel and the PEP005/DMSO diluted to the required concentration (typically 0.01 μg/ml, 0.1 μg/ml, 1 μg/ml, 10 μg/ml and 100 μg/ml) in Fibroblast-Serum Containing Medium (for dermal fibroblast cultures, Section 3.1), with fresh PEP005/culture medium solutions being prepared daily, at the various concentrations above, due to solution stability. Prior to discarding PEP005/culture medium solutions, at least two volumes of 0.1% sodium hydroxide (Sigma Chemical Company), in 95% ethanol/5% methanol (both from Thermo Fisher Scientific, Leicestershire, U.K.), was added to each solution, to deactivate.

Question: Which results are given for `C/C=C(/C)C(=O)O[C@H]1C(C)=C[C@]23C(=O)[C@@H](C=C(CO)[C@@H](O)[C@]12O)[C@H]1[C@@H](C[C@H]3C)C1(C)C` [PEP005, ingenol-3-angelate]?
Answer: HAS1 expression ([1]; PEP005 0.01-100 μg/ml plus TGF-β1 (10 ng/ml), 24 h, p<0.05 at 0.01 μg/ml, p<0.01 at 100 μg/ml): general down-regulation; HAS1 expression ([1]; PEP005 0.01-100 μg/ml plus TGF-β1 (10 ng/ml), 72 h, non-significant (p>0.05)): general down-regulation; HAS1 expression ([1]; PEP005, absence of TGF-β1, 24 h): no obvious effects; HAS1 expression ([1]; PEP005, absence of TGF-β1, 72 h): no obvious effects; hyaluronan synthesis ([2]; PEP005 0.01-10 μg/ml, absence of TGF-β1, 24 h, compared to untreated controls): significant, stimulatory effect; hyaluronan synthesis ([2]; PEP005 0.01-100 μg/ml, absence of TGF-β1, 72 h, compared to untreated controls): significant, stimulatory effect; hyaluronan synthesis ([2]; PEP005 plus TGF-β1 (10 ng/ml), 24 h, compared to untreated controls and to PEP005 without TGF-β1): significant, synergistic effect; stability of PEP005/DMSO stock solution [3]: stable for several months
